Experimental data from patent publication US20230111310A1, “CARBOXYLIC ACID DERIVATIVE-SUBSTITUTED IMINO ARYL COMPOUND, PREPARATION METHOD THEREFOR, HERBICIDAL COMPOSITION AND USE THEREOF” (Qingdao Kingagroot Chemical Compound Co., Ltd., priority 2020, published 2023).

What was measured:
Test in all cases: Weeding effect in post-emergence stage
Assay type in all cases: in vivo
Settings in all cases: level of fresh weight growth control rate
[1] = system: Abutilon theophrasti
Procedure, shortened: (§1)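 Doses of 500, 250, 125, 60, 30, 15 and 7.5 g/ha, with methyl oleate synergist (1.5 liter/ha) and Tween 80 from acetone solution, applied by spray tower post-emergence (2–3 leaf stage). Weed control scored after 3 further greenhouse weeks, averaged over triplicates.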

[2] = system: Alopecurus japonicus
Procedure, shortened: as §1

[3] = system: Digitaria sanguinalis
Procedure, shortened: as §1

[4] = system: Eleusine indica
Procedure, shortened: as §1

[5] = system: Setaria viridis
Procedure, shortened: as §1

[6] = system: Echinochloa crusgalli
Procedure, shortened: as §1

Compound	Weeding effect in post-emergence stage, Abutilon theophrasti ([1]; Dose 120 g/ha)	Weeding effect in post-emergence stage, Alopecurus japonicus ([2]; Dose 120 g/ha)	Weeding effect in post-emergence stage, Digitaria sanguinalis ([3]; Dose 120 g/ha)	Weeding effect in post-emergence stage, Eleusine indica ([4]; Dose 120 g/ha)	Weeding effect in post-emergence stage, Setaria viridis ([5]; Dose 120 g/ha)	Weeding effect in post-emergence stage, Echinochloa crusgalli ([6]; Dose 120 g/ha)	Weeding effect in post-emergence stage, Abutilon theophrasti ([1]; Dose 15 g/ha)	Weeding effect in post-emergence stage, Alopecurus japonicus ([2]; Dose 15 g/ha)	Weeding effect in post-emergence stage, Digitaria sanguinalis ([3]; Dose 15 g/ha)	Weeding effect in post-emergence stage, Eleusine indica ([4]; Dose 15 g/ha)	Weeding effect in post-emergence stage, Setaria viridis ([5]; Dose 15 g/ha)	Weeding effect in post-emergence stage, Echinochloa crusgalli ([6]; Dose 15 g/ha)
COC(=O)C(OC)O/N=C/c1cc(-n2c(=O)cc(C(F)(F)F)n(C)c2=O)c(F)cc1Cl (stereo not drawn) [Compound 321]	5 (Level 5: growth control rate is above 85%)	5 (Level 5: growth control rate is above 85%)	5 (Level 5: growth control rate is above 85%)	5 (Level 5: growth control rate is above 85%)	5 (Level 5: growth control rate is above 85%)	5 (Level 5: growth control rate is above 85%)	–	–	–	–	–	–
CCOC(=O)C(OC)O/N=C/c1cc(-n2c(=O)cc(C(F)(F)F)n(C)c2=O)c(F)cc1Cl (stereo not drawn) [Compound 322]	5 (Level 5: growth control rate is above 85%)	5 (Level 5: growth control rate is above 85%)	5 (Level 5: growth control rate is above 85%)	5 (Level 5: growth control rate is above 85%)	5 (Level 5: growth control rate is above 85%)	5 (Level 5: growth control rate is above 85%)	–	–	–	–	–	–
CCOC(O/N=C/c1cc(-n2c(=O)cc(C(F)(F)F)n(C)c2=O)c(F)cc1Cl)C(=O)OC (stereo not drawn) [Compound 331]	–	–	–	–	–	–	5 (Level 5: growth control rate is above 85%)	5 (Level 5: growth control rate is above 85%)	5 (Level 5: growth control rate is above 85%)	5 (Level 5: growth control rate is above 85%)	5 (Level 5: growth control rate is above 85%)	5 (Level 5: growth control rate is above 85%)
COCC(O/N=C/c1cc(-n2c(=O)cc(C(F)(F)F)n(C)c2=O)c(F)cc1Cl)C(=O)OC (stereo not drawn) [Compound 333]	–	–	–	–	–	–	5 (Level 5: growth control rate is above 85%)	5 (Level 5: growth control rate is above 85%)	5 (Level 5: growth control rate is above 85%)	5 (Level 5: growth control rate is above 85%)	5 (Level 5: growth control rate is above 85%)	5 (Level 5: growth control rate is above 85%)
COC(=O)C(O/N=C/c1cc(-n2c(=O)cc(C(F)(F)F)n(C)c2=O)c(F)cc1Cl)c1ccccc1 (stereo not drawn) [Compound 337]	–	–	–	–	–	–	5 (Level 5: growth control rate is above 85%)	5 (Level 5: growth control rate is above 85%)	5 (Level 5: growth control rate is above 85%)	5 (Level 5: growth control rate is above 85%)	5 (Level 5: growth control rate is above 85%)	5 (Level 5: growth control rate is above 85%)
COC(=O)C(C)O/N=C/c1cc(-n2c(=O)cc(C(F)(F)F)n(C)c2=O)c(F)cc1C(F)(F)F (stereo not drawn) [Compound 342]	–	–	–	–	–	–	5 (Level 5: growth control rate is above 85%)	4 (Level 4: growth control rate is greater than or equal to 60% and less than 85%)	5 (Level 5: growth control rate is above 85%)	5 (Level 5: growth control rate is above 85%)	5 (Level 5: growth control rate is above 85%)	5 (Level 5: growth control rate is above 85%)
COC(=O)C(C)O/N=C/c1cc(-n2c(=O)cc(C(F)(F)F)n(C)c2=O)c(F)cc1C#N (stereo not drawn) [Compound 344]	–	–	–	–	–	–	5 (Level 5: growth control rate is above 85%)	5 (Level 5: growth control rate is above 85%)	5 (Level 5: growth control rate is above 85%)	5 (Level 5: growth control rate is above 85%)	5 (Level 5: growth control rate is above 85%)	5 (Level 5: growth control rate is above 85%)
